Results taken from PMC12621202, “RTx-303, an Orally Bioavailable Polθ Polymerase Inhibitor That Potentiates PARP Inhibitors in BRCA Mutant Tumors” (Journal of Medicinal Chemistry, 2025).
Read-outs that look alike come from different tables or passages of the source.

Columns and labels:
[1] = Liver microsome stability; type: in vitro ADME
Method: Liver microsome membranes stability assay. Assays were conducted in 96-well (1 mL) polypropylene plates. In duplicate, test compounds (1 μM) were incubated in 0.5 mL of 100 mM potassium phosphate buffer (pH 7.4) with 0.5 mg/mL pooled liver microsomes from the test species (Gibco; mouse, CD1, male, MSMCPL; rat, Sprague-Dawley, male, RTMCPL; dog, Beagle, male, DGMCPL; human, mixed gender, HMMCPL), 2 mM tetrasodium NADPH and 3 mM MgCl2 for 60 min in a Labnet Vortemp incubator at 37 °C with gentle shaking. At five time points, […] of reaction mixtures were transferred to a 96-shallow-well stop plate on ice containing […] acetonitrile with 0.05 mM propafenone (internal standard). […] Verapamil was the positive reference compound (typical T1/2 = 3 min). Standard curves for test compounds were generated using 5 concentrations in duplicate. Stop plates were centrifuged at 2270 × g for 10 min and […] of the supernatants were transferred to a Waters Acquity UPLC […] 96-well sample plate, sealed with a cap mat and analyzed by UPLC/MS as described. GraphPad Prism v 5.04 was used for nonlinear fitting of time course data to generate T1/2 (min) and in vitro Clint (μL/min/mg) values.

[2] = Plasma protein binding (species not given); type: in vitro ADME
From the text: 3 Dimethylamine Side-Chain Increases Oral Bioavailability | column: Plasma protein binding (%)

[3] = Pharmacokinetics in CD-1 mice; type: in vivo; conditions: for bioavailability / Cmax / Tmax / AUC(0-t) / half-life: male, mouse, plasma; for AUC(0-t): read-out: AUClast (PO); for half-life: read-out: T1/2 (PO) (converted)
Method: For the pharmacokinetics study, CD-1 male mice (6–8 weeks) were dosed by IV or PO at the indicated concentrations of the indicated compounds dissolved in 5% DMSO, 5% ethanol, 20% TPGS, 30% PEG400, 40% water. Plasma samples were collected at the indicated time points and the indicated compound levels were determined by using standard protocols with a calibration curve and LC/MS. The pharmacokinetic studies was carried out by Pharmaron.

[4] = tested on: BRCA2^-/- HCT116; test: Clonogenic (colony) survival assay; type: cell-based, human; conditions: Homo sapiens
Method: (§1) Colony survival assays were performed on 24-well plates. 800 cells/well of HCT, DLD1- BRCA2 −/–, PALB2 −/–, MEF BRCA1 […], PEO1, SNU-601, SKOV3- BRCA2 −/–, OVCAR8 cells and 200 cells/well of HCT, DLD1, MEF, SKOV3 wildtype cells were plated. For MDA pair, 500 cells/well of MDA436 and 100 cells of MDA231 were plated. Cells were treated with the compound 24 h after plating and the medium was replaced every two or 3 days until the colonies were ready for staining. Colonies were typically ready for staining in 10–12 days. For staining: Medium was removed from plates, and cells were rinsed with PBS. Fixation was carried out with Water:Ethanol:Acetic acid (5:4:1) for 30 min followed by staining of colonies with 0.5% crystal violet in Water:Ethanol (3:2) for 2 h at room temperature. The plates were rinsed with water and left for drying overnight at room temperature. Colonies were then counted manually, and response curves are shown as mean colony formation ± SEM. IC50 was calculated with GraphPad Prism using nonlinear regression analysis, inhibitor vs response (variable slope) equation.

[5] = LogP; type: physicochemical; conditions: method not described
From the text: 1 Dimethyl and Monomethyl Side-Chains Improve Metabolic Stability and Cellular Potency | column: LogP

[6] = tested on: BRCA2^+/+ HCT116; test: Clonogenic (colony) survival assay; type: cell-based; conditions: Homo sapiens
Method: as §1

[7] = molecular target: T1, recombinant human Polθ-pol (Homo sapiens, UniProt O75417); test: Fluorescent-based IC50 DNA synthesis assay; type: biochemical; conditions: n=3
T1 construct: purified recombinant human Polθ-pol (comprising amino acid residues 1792–2590); made in house
T1 sequence (O75417 1792-2590): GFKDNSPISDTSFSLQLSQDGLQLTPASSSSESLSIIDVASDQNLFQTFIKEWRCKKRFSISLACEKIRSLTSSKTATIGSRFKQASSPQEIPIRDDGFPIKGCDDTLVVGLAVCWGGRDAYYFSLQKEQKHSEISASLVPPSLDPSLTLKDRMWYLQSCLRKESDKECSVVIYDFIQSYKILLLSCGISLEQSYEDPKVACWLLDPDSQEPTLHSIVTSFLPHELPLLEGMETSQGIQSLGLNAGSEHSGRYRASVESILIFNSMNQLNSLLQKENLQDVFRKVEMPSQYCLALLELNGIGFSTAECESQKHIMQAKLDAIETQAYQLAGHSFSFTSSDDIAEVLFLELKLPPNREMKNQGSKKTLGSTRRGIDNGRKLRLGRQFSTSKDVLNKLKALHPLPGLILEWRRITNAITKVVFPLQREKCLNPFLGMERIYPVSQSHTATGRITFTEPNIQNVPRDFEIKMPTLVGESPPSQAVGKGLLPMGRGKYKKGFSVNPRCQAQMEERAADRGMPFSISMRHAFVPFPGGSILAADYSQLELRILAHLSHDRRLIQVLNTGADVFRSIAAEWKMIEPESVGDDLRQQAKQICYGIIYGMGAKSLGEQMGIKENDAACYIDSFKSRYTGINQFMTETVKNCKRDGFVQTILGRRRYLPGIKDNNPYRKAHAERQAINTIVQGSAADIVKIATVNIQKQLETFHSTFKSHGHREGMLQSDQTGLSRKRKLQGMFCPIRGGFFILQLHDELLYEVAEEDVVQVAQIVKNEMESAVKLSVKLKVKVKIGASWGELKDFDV
Method: The biochemical Polθ-pol IC50 assay was developed in a prior report. Briefly, 60 nM of the preannealed primer-template containing a 5′ Cy5 fluorophore-conjugated template strand (RP486-Cy5), a downstream complementary oligo conjugated with a 3′ Iowa BlackReg Dark quencher (RP343BHQRQ) and a primer strand (RP469D) was mixed with 50 μM 2’-deoxyribonucleoside triphosphates (dNTPs), 0.1 mg/mL bovine serum albumin (BSA), 0.01% NP-40, 10% glycerol, 1 mM dithiothreitol (DTT), 10 mM MgCl2, 25 mM TrisHCl pH 7.8 in the presence of 2.5% DMSO with or without various concentrations (7-point dilution series) of Polθ-pol small-molecule inhibitors at 37 °C in a volume of 40 μL. The reactions were initiated by the addition of 5 nM of purified recombinant human Polθ-pol (comprising amino acid residues 1792–2590). The reactions were terminated by the addition of 20 mM EDTA after 18 min, and the Cy5 fluorescence intensity was measured using a CLARIOstar (BMG Labtech) plate reader. Reactions were performed in triplicate and the % inhibition at each concentration of the respective compound was based on the mean.

[8] = Mouse plasma protein binding; type: in vitro ADME
From the text: 4 In Vitro ADME and Potency of Chiral Derivatives | column: Mouse plasma protein binding (% free)

[9] = tested on: Polθ-pol; set-up: method as in Zatreanu 2021, Stockley 2022, Bubenik 2022, Fried 2024; conditions: Figures 1 and 2A; ref Zatreanu 2021, Stockley 2022, Bubenik 2022, Fried 2024; read-out: IC50 (Polθ-pol) of representative / previous Polθ-pol inhibitors; cited from earlier work
[10] = set-up: method as in Fried 2024; conditions: Figure 2A, matrix not printed there (liver microsomes); ref Fried 2024; cited from earlier work
[11] = male, CD1, pH 7.4, mouse liver microsomes, read-out: T1/2 mouse liver microsomes
[12] = HCT-116, read-out: IC50 BRCA2^-/- HCT116 (μM)
[13] = HCT-116, read-out: IC50 BRCA2^+/+ HCT116 (μM)
[14] = both sexes, pH 7.4, human liver microsomes, read-out: Clint (uL/min/ mg) human
[15] = both sexes, pH 7.4, human liver microsomes, read-out: T1/2 human liver microsomes
[16] = male, CD1, pH 7.4, mouse liver microsomes, read-out: Clint (uL/min /mg) mouse
[17] = HCT-116, clonogenic survival, two experiments in triplicate, read-out: IC50(nM) HCT116 BRCA2 –/–
[18] = HCT-116, clonogenic survival, two experiments in triplicate, read-out: IC50(nM) HCT116 BRCA2 +/+

## CNCC(O)CN1CCN(c2cc(C(F)(F)F)cc(C(F)(F)F)c2OC(=O)N(C)c2ccc(F)cc2)C1=O (centres unmarked) [RTx-290, 2-(3-(2-Hydroxy-3-(methylamino)propyl)-2-oxoimidazolidin-1-yl)-4,6-bis(trifluoromethyl)phenyl (4-fluorophenyl)(methyl)carbamate]
[1]; [11]
  half-life at 1 μM: 56.9 min
[2]
  fraction unbound: 0.064
[3]; 10 mg/kg IV, 10 mg/kg PO (n=3)
  bioavailability: 53.3%
[3]; 10 mg/kg PO (n=3)
  Cmax: 436 ng/mL
  Tmax: 40.2 min
  AUC(0-t): 2050 ng·h/mL
  half-life: 194 min
[4]; [12]
  IC50: 0.11 µM
[5]
  logP: 3.3
[6]; [13]
  IC50: 8.4 µM
[7]
  IC50: 5.1 nM

## CN(C)CC(O)CN1CCN(c2cc(C(F)(F)F)cc(C(F)(F)F)c2OC(=O)N(C)c2ccc(F)cc2)C1=O (centres unmarked) [RTx-182, 2-{3-[3-(Dimethylamino)-2-hydroxypropyl]-2-oxoimidazolidin-1-yl}-4,6-bis(trifluoromethyl)phenyl N-(4-fluorophenyl)-N-methylcarbamate]
[1]; [11]
  half-life at 1 μM: 7.9 min
[2]
  fraction unbound: 0.133
[3]; 5 mg/kg IV, 15 mg/kg PO (n=3)
  bioavailability: 93%
[3]; 15 mg/kg PO (n=3)
  Cmax: 512 ng/mL
  Tmax: 79.8 min
  AUC(0-t): 4070 ng·h/mL
  half-life: 142 min
[4]; [12]
  IC50: 0.86 µM
[5]
  logP: 3.7
[6]; [13]
  IC50: 5.4 µM
[7]
  IC50: 6.7 nM

## [2H]C([2H])([2H])N(C(=O)Oc1c(N2CCN(C[C@@H](O)CN(C)C)C2=O)cc(C(F)(F)F)cc1C(F)(F)F)c1ccc(F)cc1 [RTx-302, 2-{3-[(2S)-3-(Dimethylamino)-2-hydroxypropyl]-2-oxoimidazolidin-1-yl}-4,6-bis(trifluoromethyl)phenyl N-(4-fluorophenyl)-N-(methyl-d3)-carbamate]
[1]; [14]
  microsomal CLint at 1 μM: 114 µL/min/mg
[1]; [15]
  half-life at 1 μM: 12.5 min
[1]; [16]
  microsomal CLint at 1 μM: 209 µL/min/mg
[1]; [11]
  half-life at 1 μM: 6.9 min
[3]; 15 mg/kg IV, 50 mg/kg PO (n=3)
  bioavailability: 107%
[3]; 50 mg/kg PO (n=3)
  Cmax: 2170 ng/mL
  Tmax: 78 min
  AUC(0-t): 24200 ng·h/mL
  half-life: 120 min
[3]; parent compound, 50 mg/kg PO (n=3)
  Avg. free unbound exposure: 71 nM/h
[8]
  Mouse plasma protein binding (% free): 4.0 % free
[7]
  IC50: 7.5 nM

## [2H]C([2H])([2H])N(C(=O)Oc1c(N2CCN(C[C@@H](O)CNC)C2=O)cc(C(F)(F)F)cc1C(F)(F)F)c1ccc(F)cc1 [RTx-314]
[1]; [14]
  microsomal CLint at 1 μM: < 23 µL/min/mg
[1]; [15]
  half-life at 1 μM: > 60 min
[1]; [16]
  microsomal CLint at 1 μM: 26.7 µL/min/mg
[1]; [11]
  half-life at 1 μM: > 50 min
[8]
  Mouse plasma protein binding (% free): 3.1 % free
[7]
  IC50: 6.6 nM

## Cc1cccc(N(C)C(=O)[C@@H]2[C@H](O)CCN2c2nc(C)cc(C(F)(F)F)c2C#N)c1 [ART558, reference compound]
[9]
  IC50: 7.9 nM
[4]; [17]
  IC50: 1.04 µM
[6]; [18]
  IC50: > 1.28 µM

## CN1CCN(c2cc(C(F)(F)F)cc(C(F)(F)F)c2OC(=O)N(C)c2ccc(F)cc2)C1=O [RTx-152]
[9]
  IC50: 6.2 nM
[10]
  t1/2 of previous Polθi: < 2 min

## Cc1cc(C(F)(F)F)cc(N2C(=O)[C@@H](O)[C@@H](O)[C@H]2C(=O)N(C)c2ccc(F)c(Cl)c2)n1 [ART812, reference compound]
[9]
  IC50: 7.6 nM
[4]; [17]
  IC50: 0.454 µM
[6]; [18]
  IC50: > 1.28 µM

## CN(C(=O)Oc1c(Cl)cc(Cl)c2cccnc12)c1ccccc1 [MC2800003]
[9]
  IC50: 160 nM
[10]
  t1/2 of previous Polθi: < 2 min

## Nc1ccc(C#CCN(C(=O)Cc2ncc(C(F)(F)F)cc2C(F)(F)F)c2ccc(F)cc2)nn1 [RP-6685, reference compound]
[9]
  IC50: 5.8 nM
[4]; [17]
  IC50: 0.403 µM
[6]; [18]
  IC50: > 1.28 µM
